Source: patent publication US10906900B2, “Compounds for using in imaging and particularly for the diagnosis of neurodegenerative diseases” (CENTRE NATIONAL DE LA RECHERCHE SCIENTIFIQUE, priority 2016, dated 2021)
Read-outs that look alike come from different tables or passages of the source.

What was measured:
Aβ1-42 fibres = Aβ1-42 fibres (Homo sapiens, UniProt P05067); assay: In vitro inhibition of ThT binding and determination of Ki (fluorescence), Aβ1-42 fibres; settings: vs Thioflavin T 500 nM; Aβ1-42 fibres 500 nM; PBS pH7.4, 1 h RT; read-out: Ki Aβ
Procedure: (§1) To obtain fiber assembly, α-syn is incubated in Tris-HCl 50 mM pH7.5, KCl 150 mM at 37° C. under continuous agitation during 4 days. The lyophilized Aβ1-42 was dissolved in 1,1,1,3,3,3-Hexafluoro-2-propanol (HFIP) at 0.2 mg/mL and incubated for 24 h at 37° C. to obtain the complete solubilization. The HFIP is evaporated under nitrogen stream to obtain a dry product. To start the fiber assembly, the dry peptide is resuspended in PBS pH7.4, 10% (v/v) DMSO and incubated at 37° C. for 3 days without agitation.
(§2) Protein fibers are systematically observed by electron microscopy (Jeol 1400). The images are recorded with a CCD camera (Gatan Orius). Finally, the percentage of α-syn and Aβ1-42 aggregated into fibers is checked on the pellet after centrifugation at 40000×g for 20 min and determination of the concentration of soluble protein/peptide remaining in the supernatant.
(§3) The samples are incubated for 1 h at room temperature (RT) to reach equilibrium. […] From each curve, the IC50 value is measured using the following equation: Y=min+(max−min)/1+([…])^slope

Tau fibers = Tau fibers (Homo sapiens (Human), UniProt P10636); assay: In vitro direct determination of Kd and Bmax by fluorescence, Tau fibers; assay type: binding; settings: for Tau Bmax1: density of binding sites; for Tau Bmax1 / Kd: direct fluorescence, Scatchard analysis; for Kd: Tau fibers 200 nM, read-out: Tau Kd1; for Tau Bmax1 (number of sites/monomer): in brackets in the Bmax cell; for Tau selectivity according to analysis of Kd (Tables 6 and 7): selective = good affinity and at least two times greater than for at least one of the two other proteins
Procedure: Human Tau protein (isoform h2N4RTau) is expressed in the vector pET11d in E. Coli (strain BL21 (DE3), (Stratagene, La Jolla, Calif.)) and purified according to the described method (Barghorn S, Biernat J, Mandelkow E. (2005) Methods Mol Biol. 299:35-51). The Tau purified concentration is determined by measuring the absorbance at 280 nm using a molar extinction coefficient of 7450 M^−1 cm^−1.
(§4) Tau protein in PBS buffer containing 1 mM DTT is assembled into fiber in the presence of one twelfth of a molar equivalent of heparin at 37° C. under stirring.
(§5) Fresh solutions of each test compound (2.5 mM in DMSO) are diluted in PBS pH=7.4 at concentrations between 0.5 nM and 5 μM in the presence or absence of α-syn (200 nM), Aβ1-42 (500 nM) or Tau (200 nM) fibers in a final 2 mL volume. After 1 h of incubation at RT, the binding of each compound to α-syn, A131-42 or Tau fibers is measured by fluorescence using the spectral changes of the compounds during their binding to the fibers, using the appropriate excitation/emission wavelengths (those giving the highest fluorescence variation during binding to the fibres). For each concentration of compound added to the fibres, the bound and free fractions are measured by fluorescence according to the following equation: Fm=FBB+FF×(T−B)
Where Fm is the fluorescence measured in the presence of fibers at a concentration T of the compound added to the fibers, FB is the specific fluorescence of the bound compound, FF is the specific fluorescence of the free compound, and B is the concentration of the fiber bound compound at a given concentration T (Bell, J. E., “Fluorescence; Solution Studies”, Spectrometry in Biochemistry, vol. I, Bell, J. E., ed., CRC Press, Inc., Boca Raton, Fla., pp. 155-194 (1981)).
(§6) The value of FF is determined by measuring the fluorescence of known concentrations of compounds in the absence of fibres. The FB value is determined by measuring the maximum fluorescence of known concentrations of compounds in the presence of saturated concentrations of α-syn, Aβ1-42, or Tau fibers.
Thus, at each point, the concentration of bound compound B is determined according to the following equation: B=(Fm−FF×T)/(FB−FF)
(§7) The values of B thus determined versus the concentrations of the free fractions (T-B) are analyzed according to the Michaelis-Menten equation. The affinity (Kd) and density of binding sites within the fibers of α-syn, Aβ1-42 or Tau (Bmax) are determined by Scatchard analysis, which also makes it possible to highlight multiple site classes.

α-syn fibres = α-syn fibres (Homo sapiens (Human), UniProt P37840); assay: In vitro inhibition of ThT binding and determination of Ki (fluorescence), α-syn fibres; settings: for α-syn selectivity according to analysis of Ki (Table 5): selective = good affinity and at least two times greater than for at least one of the two other proteins; for Ki: vs Thioflavin T 500 nM, α-syn fibres 200 nM, PBS pH7.4, 1 h RT, read-out: Ki αsyn
Procedure: as §1, §2, §3

Tau fibres = Tau fibres (Homo sapiens (Human), UniProt P10636); assay: In vitro inhibition of ThT binding and determination of Ki (fluorescence), Tau fibres; settings: for Tau selectivity according to analysis of Ki (Table 5): selective = good affinity and at least two times greater than for at least one of the two other proteins
Procedure: as §4, §3

α-syn fibers = α-syn fibers (Homo sapiens (Human), UniProt P37840); assay: In vitro direct determination of Kd and Bmax by fluorescence, α-syn fibers; assay type: binding; settings: for αsyn Bmax1: density of binding sites; for αsyn Bmax1 / Kd: direct fluorescence, Scatchard analysis; for Kd: α-syn fibers 200 nM, read-out: αsyn Kd1; for αsyn Bmax1 (number of sites/monomer): in brackets in the Bmax cell; for α-syn selectivity according to analysis of Kd (Tables 6 and 7): selective = good affinity and at least two times greater than for at least one of the two other proteins
Procedure: as §1, §5, §6, §7

Aβ1-42 fibers = Aβ1-42 fibers (Homo sapiens, UniProt P05067); assay: In vitro direct determination of Kd and Bmax by fluorescence, Aβ1-42 fibers; assay type: binding; settings: for Aβ Bmax1: density of binding sites; for Aβ Bmax1 / Kd: direct fluorescence, Scatchard analysis; for Kd: Aβ1-42 fibers 500 nM, read-out: Aβ Kd1; for Aβ Bmax1 (number of sites/monomer): in brackets in the Bmax cell
Procedure: as §1, §5, §6, §7

Sequence of Tau fibres (P10636 other isoform, or with tags, fused parts or gaps): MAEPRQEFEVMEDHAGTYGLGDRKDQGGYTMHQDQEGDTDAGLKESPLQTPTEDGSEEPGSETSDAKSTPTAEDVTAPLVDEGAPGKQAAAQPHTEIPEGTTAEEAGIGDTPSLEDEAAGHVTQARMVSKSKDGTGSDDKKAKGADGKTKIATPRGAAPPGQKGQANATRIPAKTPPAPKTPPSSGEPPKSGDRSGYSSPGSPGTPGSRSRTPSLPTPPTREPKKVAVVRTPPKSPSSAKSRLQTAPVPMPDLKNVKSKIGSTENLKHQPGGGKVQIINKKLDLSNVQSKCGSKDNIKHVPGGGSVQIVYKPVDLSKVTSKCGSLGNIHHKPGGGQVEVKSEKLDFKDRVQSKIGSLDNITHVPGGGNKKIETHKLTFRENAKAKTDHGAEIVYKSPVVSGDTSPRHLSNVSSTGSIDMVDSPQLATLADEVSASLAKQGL
Sequence of Tau fibers (P10636 other isoform, or with tags, fused parts or gaps): as above
Sequence of Aβ1-42 fibres (P05067 672-713 limits assumed): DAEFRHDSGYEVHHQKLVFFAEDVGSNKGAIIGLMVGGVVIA
Sequence of Aβ1-42 fibers (P05067 672-713 limits assumed): as above

CN(C)c1ccc(C#Cc2cc3c(F)ccnc3[nH]2)cc1 [Compound 22h, 4-((4-Fluoro-1H-pyrrolo[2,3-b]pyridin-2-yl)ethynyl)-N,N-dimethylaniline]
Ki (Aβ1-42 fibres): 244 ± 84 nM

CN(C)c1ccc(C#Cc2cc3ccncc3[nH]2)cc1 [Compound 22b, 4-((1H-Pyrrolo[2,3-c]pyridin-2-yl)ethynyl)-N,N-dimethylaniline]
Tau Bmax1 (Tau fibers): 37.1 ± 10 nmol/μmol prot
Kd (Tau fibers): 0.49 ± 0.2 nM
Tau Bmax1 (number of sites/monomer) (Tau fibers): 1/30
Tau selectivity according to analysis of Kd (Tables 6 and 7) (Tau fibers): selective
α-syn selectivity according to analysis of Ki (Table 5) (α-syn fibres): selective
Ki (α-syn fibres): 28.7 ± 8 nM
Ki (Aβ1-42 fibres): 91.5 ± 11 nM
Ki (Tau fibres): 8.4 ± 2 nM
Tau selectivity according to analysis of Ki (Table 5) (Tau fibres): selective
αsyn Bmax1 (α-syn fibers): 80.0 ± 42 nmol/μmol prot
Kd (α-syn fibers): 1.4 ± 1 nM
αsyn Bmax1 (number of sites/monomer) (α-syn fibers): 1/15
α-syn selectivity according to analysis of Kd (Tables 6 and 7) (α-syn fibers): selective
Aβ Bmax1 (Aβ1-42 fibers): 2.3 ± 0.8 nmol/μmol prot
Kd (Aβ1-42 fibers): 5.2 ± 3 nM
Aβ Bmax1 (number of sites/monomer) (Aβ1-42 fibers): 1/400

CN(C)c1ccc(C#Cc2cc3ccc(-c4ccc(F)nc4)nc3[nH]2)cc1 [Compound 25c, 4-((6-(6-Fluoropyridin-3-yl)-1H-pyrrolo[2,3-b]pyridin-2-yl)ethynyl)-N,N-dimethylaniline]
Aβ Bmax1 (Aβ1-42 fibers): 11.0 ± 2 nmol/μmol prot
Kd (Aβ1-42 fibers): 3.1 ± 1 nM
Aβ Bmax1 (number of sites/monomer) (Aβ1-42 fibers): 1/90

CN(C)c1ccc(C#Cc2cc3ncccc3[nH]2)cc1 [Compound 22c, 4-((1H-Pyrrolo[3,2-b]pyridin-2-yl)ethynyl)-N,N-dimethylaniline]
Tau Bmax1 (Tau fibers): 26.5 ± 5 nmol/μmol prot
Kd (Tau fibers): 0.13 ± 0.05 nM
Tau Bmax1 (number of sites/monomer) (Tau fibers): 1/40
Tau selectivity according to analysis of Kd (Tables 6 and 7) (Tau fibers): selective
Ki (α-syn fibres): 26 ± 16 nM
Ki (Aβ1-42 fibres): 21.3 ± 7 nM
Ki (Tau fibres): 12 ± 1 nM
Tau selectivity according to analysis of Ki (Table 5) (Tau fibres): selective
αsyn Bmax1 (α-syn fibers): 82.5 ± 5 nmol/μmol prot
Kd (α-syn fibers): 3.25 ± 0.2 nM
αsyn Bmax1 (number of sites/monomer) (α-syn fibers): 1/12
Aβ Bmax1 (Aβ1-42 fibers): 1.44 ± 0.6 nmol/μmol prot
Kd (Aβ1-42 fibers): 2.9 ± 2 nM
Aβ Bmax1 (number of sites/monomer) (Aβ1-42 fibers): 1/700

CN(C)c1ccc(C#Cc2cc3ccc(-c4ccsc4)nc3[nH]2)cc1 [Compound 25b, N,N-Dimethyl-4-((6-(thiophen-3-yl)-1H-pyrrol[2,3-b]pyridin-2-yl)ethynyl)aniline]
Aβ Bmax1 (Aβ1-42 fibers): 11.0 ± 1 nmol/μmol prot
Kd (Aβ1-42 fibers): 4.27 ± 0.6 nM
Aβ Bmax1 (number of sites/monomer) (Aβ1-42 fibers): 1/90

CN(C)c1ccc(C#Cc2cc3cnccc3[nH]2)cc1 [Compound 22d, 4-((1H-Pyrrolo[3,2-c]pyridin-2-yl)ethynyl)-N,N-dimethylaniline]
Tau Bmax1 (Tau fibers): 12.5 ± 5 nmol/μmol prot
Kd (Tau fibers): 2.4 ± 0.9 nM
Tau Bmax1 (number of sites/monomer) (Tau fibers): 1/80
αsyn Bmax1 (α-syn fibers): 6.0 ± 1 nmol/μmol prot
Kd (α-syn fibers): 1 ± 0.5 nM
αsyn Bmax1 (number of sites/monomer) (α-syn fibers): 1/170
α-syn selectivity according to analysis of Kd (Tables 6 and 7) (α-syn fibers): selective
Aβ Bmax1 (Aβ1-42 fibers): 2.4 ± 0.8 nmol/μmol prot
Kd (Aβ1-42 fibers): 3.6 ± 2 nM
Aβ Bmax1 (number of sites/monomer) (Aβ1-42 fibers): 1/400

CN(C)c1ccc(C#Cc2cc3ccc(Cl)nc3[nH]2)cc1 [Compound 22e, 4-((6-Chloro-1H-pyrrolo[2,3-b]pyridin-2-yl)ethynyl)-N,N-dimethylaniline]
α-syn selectivity according to analysis of Ki (Table 5) (α-syn fibres): selective
Ki (α-syn fibres): 49.9 ± 12 nM
Ki (Aβ1-42 fibres): 909 ± 143 nM
Ki (Tau fibres): 25.1 ± 8 nM
Tau selectivity according to analysis of Ki (Table 5) (Tau fibres): selective

CN(C)c1ccc(C#Cc2cc3ccc(-c4cccs4)nc3[nH]2)cc1 [Compound 25a, N,N-Dimethyl-4-((6-(thiophen-2-yl)-1H-pyrrol[2,3-b]pyridin-2-yl)ethynyl)aniline]
Tau Bmax1 (Tau fibers): 70.4 ± 4 nmol/μmol prot
Kd (Tau fibers): 1.67 ± 0.5 nM
Tau Bmax1 (number of sites/monomer) (Tau fibers): 1/10
αsyn Bmax1 (α-syn fibers): 53.5 ± 10 nmol/μmol prot
Kd (α-syn fibers): 0.49 ± 0.2 nM
αsyn Bmax1 (number of sites/monomer) (α-syn fibers): 1/20
α-syn selectivity according to analysis of Kd (Tables 6 and 7) (α-syn fibers): selective
Aβ Bmax1 (Aβ1-42 fibers): 5.8 ± 0.32 nmol/μmol prot
Kd (Aβ1-42 fibers): 4.9 ± 0.6 nM
Aβ Bmax1 (number of sites/monomer) (Aβ1-42 fibers): 1/170

CN(C)c1ccc(C#Cc2cc3ccc(F)nc3[nH]2)cc1 [Compound 22f, 4-((6-Fluoro-1H-pyrrolo[2,3-b]pyridin-2-yl)ethynyl)-N,N-dimethylaniline]
Ki (Aβ1-42 fibres): 349 ± 256 nM
Aβ Bmax1 (Aβ1-42 fibers): 21.6 ± 3 nmol/μmol prot
Kd (Aβ1-42 fibers): 16.8 ± 2 nM
Aβ Bmax1 (number of sites/monomer) (Aβ1-42 fibers): 1/50

CN(C)c1ccc(C#Cc2cc3cc(F)cnc3[nH]2)cc1 [Compound 22g, 4-((5-Fluoro-1H-pyrrolo[2,3-b]pyridin-2-yl)ethynyl)-N,N-dimethylaniline]
Ki (Aβ1-42 fibres): 318 ± 95 nM

CC(=C(C#N)C#N)c1ccc2cc(N(C)CCF)ccc2c1 [FDDNP, reference compound]
Tau Bmax1 (Tau fibers): 138.5 ± 16 nmol/μmol prot
Kd (Tau fibers): 34.9 ± 6 nM
Tau Bmax1 (number of sites/monomer) (Tau fibers): 1/7
Ki (α-syn fibres): 25.1 ± 5 nM
Ki (Aβ1-42 fibres): 4.6 ± 3 nM
Ki (Tau fibres; vs Thioflavin T 500 nM, Tau fibres 200 nM, PBS pH7.4, 1 h RT): 9.5 ± 1 nM
αsyn Bmax1 (α-syn fibers): 39.5 ± 10 nmol/μmol prot
Kd (α-syn fibers): 16.1 ± 6 nM
αsyn Bmax1 (number of sites/monomer) (α-syn fibers): 1/25
Aβ Bmax1 (Aβ1-42 fibers): 10.2 ± 1 nmol/μmol prot
Kd (Aβ1-42 fibers): 4.2 ± 1 nM
Aβ Bmax1 (number of sites/monomer) (Aβ1-42 fibers): 1/100
